Source: patent US6867207B2, “IL-5 inhibiting 6-azauracil derivatives” (Janssen Pharmaceutica N.V., priority 1997, dated 2005)

These compounds were tested on IL-5 production (assay: In vitro inhibition of IL-5 production in human blood (phytohemagglutinin-stimulated whole blood, ELISA)). Settings: test dose 1×10^−6 M, 48 hours.
Assay type: cell-based
Method in brief: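 Heparinised blood from healthy male donors, diluted threefold in RPMI 1640, preincubated 60 min at 37° C with compound (0.02% DMSO vehicle), then stimulated with 2 μg/mL phytohemagglutinin for 48 h. Supernatant IL-5 measured by ELISA; percentage inhibition at 1×10^−6 M or 1×10^−5 M.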
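Note: values marked with an asterisk were tested at 10 µM and unmarked values at 1 µM.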

Row | SMILES | % inh. (percentage inhibition of IL-5 production)
1 | O=c1cnn(-c2ccc(C(c3ccc(Cl)cc3)c3sc(-c4ccccc4)nc3-c3ccccc3)c(Cl)c2)c(=O)[nH]1 (racemic) [Compound 140] | 45%
2 | O=c1cnn(-c2ccc(C(c3ccc(Cl)cc3)c3sc(-c4ccccc4)nc3-c3ccccc3Cl)c(Cl)c2)c(=O)[nH]1 (racemic) [Compound 144] | 40%
3 | CCOCCc1nnc(C(c2ccc(Cl)cc2)c2c(Cl)cc(-n3ncc(=O)[nH]c3=O)cc2Cl)o1 (racemic) [Compound 181] | 55%
4 | Cc1nc(C(c2ccc(Cl)cc2)c2c(Cl)cc(-n3ncc(=O)[nH]c3=O)cc2Cl)sc1-c1ccccc1 (racemic) [Comp 248] | 91%
5 | O=c1cnn(-c2cc(Cl)c(C(c3ccc(Cl)cc3)c3nnc(-c4cccc(Cl)c4)o3)c(Cl)c2)c(=O)[nH]1 (racemic) [Compound 157] | 85%
6 | O=c1cnn(-c2ccc(C(Sc3ncnc4[nH]ncc34)c3ccc(Cl)cc3)c(Cl)c2)c(=O)[nH]1 (racemic) [Compound 74] | 69%
7 | CN(C)Cc1sc(C(c2ccc(Cl)cc2)c2c(Cl)cc(-n3ncc(=O)[nH]c3=O)cc2Cl)nc1-c1cccc(F)c1 (racemic) [Comp 280] | 96%
8 | O=c1cnn(-c2cc(Cl)c(C(c3ccc(Cl)cc3)c3nc(-c4cccc(F)c4)cs3)c(Cl)c2)c(=O)[nH]1 (single isomer, unassigned) [Comp 318] | 81%
9 | O=c1cnn(-c2cc(Cl)c(C(c3ccc(Cl)cc3)c3ccccn3)c(Cl)c2)c(=O)[nH]1 (stereo not shown) [Comp 115] | 71%
10 | CCOC(=O)N1CCC(c2nnc(C(c3ccc(Cl)cc3)c3c(Cl)cc(-n4ncc(=O)[nH]c4=O)cc3Cl)o2)CC1 (racemic) [Compound 191] | 19%
11 | O=c1cnn(-c2cc(Cl)c(C(c3ccncc3)c3ccc(Cl)cc3)c(Cl)c2)c(=O)[nH]1 (stereo not shown) [Comp 113] | 76%
12 | Cc1nc(-c2ccccc2)sc1C(c1ccc(Cl)cc1)c1c(Cl)cc(-n2ncc(=O)[nH]c2=O)cc1Cl (racemic) [Compound 138] | 81%
13 | CN(C)c1ccc(-c2nnc(C(c3ccc(Cl)cc3)c3c(Cl)cc(-n4ncc(=O)[nH]c4=O)cc3Cl)o2)cc1 (racemic) [Compound 180] | 54%
14 | O=c1cnn(-c2cc(Cl)c(C(c3ccc(Cl)cc3)c3nnc(-c4ccc(Br)cc4)o3)c(Cl)c2)c(=O)[nH]1 (racemic) [Compound 168] | 80%
15 | Cc1cc(C(C)(c2ccc(Cl)c(C(F)(F)F)c2)c2nc(-c3ccccc3)cs2)c(Cl)cc1-n1ncc(=O)[nH]c1=O (racemic) [Comp 235] | 79%
16 | Cc1ccc2[nH]c(SC(c3ccc(Cl)cc3)c3ccc(-n4ncc(=O)[nH]c4=O)cc3Cl)nc2c1 (racemic) [Compound 62] | 30%
17 | O=c1cnn(-c2ccc(C(SC3=NCCS3)c3ccc(Cl)cc3)c(Cl)c2)c(=O)[nH]1 (racemic) [Compound 78] | 70%
18 | Cc1nc(-c2ccccc2Cl)c(C(c2ccc(Cl)cc2)c2ccc(-n3ncc(=O)[nH]c3=O)cc2Cl)s1 (racemic) [Compound 139] | 60%
19 | O=c1cnn(-c2cc(Cl)c(C(c3ccc(Cl)cc3)c3nc(-c4ccccc4Br)cs3)c(Cl)c2)c(=O)[nH]1 (racemic) [Comp 244] | 95%
20 | O=c1cnn(-c2cc(Cl)c(C(c3ccc(Cl)cc3)c3cnc(-c4ccccc4)s3)c(Cl)c2)c(=O)[nH]1 (racemic) [Compound 142] | 80%
21 | Cc1cccc(-c2nnc(C(c3ccc(Cl)cc3)c3c(Cl)cc(-n4ncc(=O)[nH]c4=O)cc3Cl)o2)c1 (racemic) [Compound 178] | 78%
22 | O=c1cnn(-c2cc(Cl)c(C(Sc3nccc(-c4ccccc4)n3)c3ccc(Cl)c(C(F)(F)F)c3)c(Cl)c2)c(=O)[nH]1 (racemic) [Compound 342] | 93%
23 | O=c1cnn(-c2cc(Cl)c(C(c3ccc(Cl)cc3)c3nc(Cc4ccccc4)cs3)c(Cl)c2)c(=O)[nH]1 (racemic) [Comp 225] | 80%
24 | O=c1cnn(-c2ccc(C(O)(c3ccc(Cl)cc3)c3nc(-c4ccccc4)cs3)c(Cl)c2)c(=O)[nH]1 (racemic) [Comp 34] | 58%
25 | COc1cccc(-c2nnc(C(c3ccc(Cl)cc3)c3c(Cl)cc(-n4ncc(=O)[nH]c4=O)cc3Cl)o2)c1 (racemic) [Compound 170] | 62%

Row | SMILES | % inh. (percentage inhibition of IL-5 production)
26 | CCOCc1sc(C(c2ccc(Cl)cc2)c2c(Cl)cc(-n3ncc(=O)[nH]c3=O)cc2Cl)nc1-c1ccccc1 (racemic) [Comp 295] | 90%
27 | Cc1sc(C(c2ccc(Cl)c(C(F)(F)F)c2)c2c(Cl)cc(-n3ncc(=O)[nH]c3=O)cc2Cl)nc1-c1ccccc1 (racemic) [Comp 246] | 94%
28 | CN(C)CCN(C)Cc1sc(C(c2ccc(Cl)cc2)c2c(Cl)cc(-n3ncc(=O)[nH]c3=O)cc2Cl)nc1-c1ccccc1 (racemic) [Comp 311] | 64%
29 | O=c1cnn(-c2cc(Cl)c(C(c3ccc(Cl)cc3)c3csc(-c4ccccc4Cl)n3)c(Cl)c2)c(=O)[nH]1 (racemic) [Compound 367] | 74%
30 | Cc1sc(C(c2ccc(Cl)cc2)c2c(Cl)cc(-n3ncc(=O)[nH]c3=O)cc2Cl)nc1-c1cccc(F)c1 (racemic) [Comp 287] | 94%
31 | O=c1cnn(-c2cc(Cl)c(C(c3ccc(Cl)cc3)c3nnc(-c4ccco4)o3)c(Cl)c2)c(=O)[nH]1 (racemic) [Compound 161] | 91%
32 | O=c1cnn(-c2cc(Cl)c(C(Sc3ccccn3)c3ccc(Cl)c(C(F)(F)F)c3)c(Cl)c2)c(=O)[nH]1 (stereo not shown) [Compound 378] | 91%
33 | O=c1cnn(-c2cc(Cl)c(C(c3ccc(Cl)cc3)c3nnc(COc4ccccc4Cl)o3)c(Cl)c2)c(=O)[nH]1 (racemic) [Compound 175] | 58%
34 | Cc1sc(C(C)(c2ccc(Cl)c(C(F)(F)F)c2)c2c(Cl)cc(-n3ncc(=O)[nH]c3=O)cc2Cl)nc1-c1ccccc1 (racemic) [Comp 234] | 83%
35 | Cc1nc(-c2ccccc2Cl)c(C(c2ccc(Cl)cc2)c2c(Cl)cc(-n3ncc(=O)[nH]c3=O)cc2Cl)s1 (racemic) [Compound 135] | 88%
36 | O=c1cnn(-c2ccc(C(Sc3ccccn3)c3ccc(Cl)c(C(F)(F)F)c3)c(Cl)c2)c(=O)[nH]1 (stereo not shown) [Compound 86] | 84%
37 | CCc1sc(C(c2ccc(Cl)cc2)c2c(Cl)cc(-n3ncc(=O)[nH]c3=O)cc2Cl)nc1-c1ccccc1 (racemic) [Comp 224] | 95%
38 | NS(=O)(=O)Nc1cccc(-c2nnc(C(c3ccc(Cl)cc3)c3c(Cl)cc(-n4ncc(=O)[nH]c4=O)cc3Cl)o2)c1.O (racemic) [Compound 221] | −2%
39 | COc1ccccc1-c1nnc(C(c2ccc(Cl)cc2)c2c(Cl)cc(-n3ncc(=O)[nH]c3=O)cc2Cl)o1 (racemic) [Compound 171] | 59%
40 | Cc1nnc(SC(c2ccc(Cl)cc2)c2ccc(-n3ncc(=O)[nH]c3=O)cc2Cl)s1 (racemic) [Compound 56] | 41%
41 | CN(C)C(=O)Cc1sc(C(c2ccc(Cl)cc2)c2c(Cl)cc(-n3ncc(=O)[nH]c3=O)cc2Cl)nc1-c1ccccc1 (racemic) [Comp 275] | 94%
42 | COc1cc(-n2ncc(=O)[nH]c2=O)ccc1C(c1ccc(Cl)cc1)c1sc(C)nc1-c1ccccc1 (racemic) [Compound 153] | 72%
43 | O=c1cnn(-c2cc(Cl)c(C(c3ccc(Cl)cc3)c3nnc(-c4ccc(Cl)cc4)o3)c(Cl)c2)c(=O)[nH]1 (racemic) [Compound 167] | 82%
44 | O=c1cnn(-c2cc(Cl)c(C(Sc3nc4ccccc4[nH]3)c3ccc(Cl)c(C(F)(F)F)c3)c(Cl)c2)c(=O)[nH]1 (stereo not shown) [Compound 396] | 28%
45 | CCOC(=O)c1nnc(C(c2ccc(Cl)cc2)c2c(Cl)cc(-n3ncc(=O)[nH]c3=O)cc2Cl)o1 (racemic) [Compound 186] | 8%
46 | O=c1cnn(-c2cc(Cl)c(C(Sc3nc(-c4ccco4)cs3)c3ccc(Cl)c(C(F)(F)F)c3)c(Cl)c2)c(=O)[nH]1 (racemic) [Compound 399] | 93%
47 | CCOC(=O)Cc1sc(C(c2ccc(Cl)cc2)c2c(Cl)cc(-n3ncc(=O)[nH]c3=O)cc2Cl)nc1-c1ccccc1Cl (racemic) [Comp 293] | 59%
48 | Cc1nc(C(c2ccc(Cl)cc2)c2ccc(-n3ncc(=O)[nH]c3=O)cc2Cl)c(-c2ccccc2)s1 (racemic) [Compound 369] | 66%
49 | Cc1ccoc1-c1nnc(C(c2ccc(Cl)cc2)c2c(Cl)cc(-n3ncc(=O)[nH]c3=O)cc2Cl)o1 (racemic) [Compound 207] | 94%
50 | O=c1cnn(-c2ccc(C(Sc3ccncc3)c3ccc(Cl)cc3)c(Cl)c2)c(=O)[nH]1 (racemic) [Compound 65] | 50%

Same assay, conditions: test dose 1×10^−6 M, 48 hours, read-out: % inh. (percentage inhibition of IL-5 production)

Row | SMILES | inhibition at 1 µM
51 | CC(C)COC(c1ccc(Cl)cc1)c1ccc(-n2ncc(=O)[nH]c2=O)cc1Cl (racemic) [Compound 133, (±)-2-[3-chloro-4-[(4-chloro-phenyl)(2-methylpropoxy)methyl]phenyl]-1,2,4-triazine-3,5(2H,4H)-dione] | 50%
52 | O=c1cnn(-c2ccc(C(Nc3ncccn3)c3ccc(Cl)cc3)c(Cl)c2)c(=O)[nH]1 (racemic) [Compound 49, (±)-2-[3-chloro-4-[(4-chlorophenyl)(2-pyrimidinylamino)methyl]phenyl]-1,2,4-triazine-3,5(2H,4H)-dione] | 61%
